Measured values taken from patent US20250382344A1, “Soluble GLP1/GIP/NPY2 Receptor Triple Agonists” (Boehringer Ingelheim International GmH, priority 2024, published 2025).
Read-outs that look alike come from different tables or passages of the source. *1 amine or outer side, *2 acyl side, *3 side chain or, on linkers, in order; H or OH if unused. Where a SMILES comes first, the peptide text is derived from it. Side-chain parts run from the residue outwards. [ ]: non-standard residue; d: D form. The star is where a group is joined. C18 diacid = O=C(O)CCCCCCCCCCCCCCCCC(=O)*; γGlu = O=C(O)[C@H](CCC(=O)[*:2])N[*:1]; εLys = N[C@@H](CCCCN[*:1])C(=O)[*:2]; Aib = CC(C)(N)C(=O)O

How the values were obtained:
[1] = biological target: T1, hGIPR (Homo sapiens, UniProt P48546); assay: hGIPR CreLuc assay in 0.5% and 100% plasma (CHO CRE-luciferase reporter cells); assay type: cell-based
T1 construct: expressed in transfected cells; host or cells: CHO CRE-luciferase reporter cells
T1 sequence (P48546 22-466): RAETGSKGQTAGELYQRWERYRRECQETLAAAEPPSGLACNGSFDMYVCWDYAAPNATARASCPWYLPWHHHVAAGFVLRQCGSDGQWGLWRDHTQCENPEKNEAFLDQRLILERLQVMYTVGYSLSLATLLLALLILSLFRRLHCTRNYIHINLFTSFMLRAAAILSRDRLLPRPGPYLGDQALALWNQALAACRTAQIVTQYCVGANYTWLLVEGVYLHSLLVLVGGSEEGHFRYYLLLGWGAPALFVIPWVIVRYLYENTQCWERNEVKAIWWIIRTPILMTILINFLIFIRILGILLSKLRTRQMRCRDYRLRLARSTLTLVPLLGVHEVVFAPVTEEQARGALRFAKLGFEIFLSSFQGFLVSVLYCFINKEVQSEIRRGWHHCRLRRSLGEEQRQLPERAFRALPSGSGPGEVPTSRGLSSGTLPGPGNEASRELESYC

[2] = biological target: T2, hGLP1R (Homo sapiens, UniProt P43220); assay: hGLP1R CreLuc assay in 0.5% and 100% plasma (HEK-293 CRE-luciferase reporter cells); assay type: cell-based; conditions: 0.5% human plasma, HEK-293 reporter cells, read-out: hGLP1R 0.5% hP
T2 construct: expressed in transfected cells; host or cells: HEK-293 CRE-luciferase reporter cells
T2 sequence (P43220 24-463): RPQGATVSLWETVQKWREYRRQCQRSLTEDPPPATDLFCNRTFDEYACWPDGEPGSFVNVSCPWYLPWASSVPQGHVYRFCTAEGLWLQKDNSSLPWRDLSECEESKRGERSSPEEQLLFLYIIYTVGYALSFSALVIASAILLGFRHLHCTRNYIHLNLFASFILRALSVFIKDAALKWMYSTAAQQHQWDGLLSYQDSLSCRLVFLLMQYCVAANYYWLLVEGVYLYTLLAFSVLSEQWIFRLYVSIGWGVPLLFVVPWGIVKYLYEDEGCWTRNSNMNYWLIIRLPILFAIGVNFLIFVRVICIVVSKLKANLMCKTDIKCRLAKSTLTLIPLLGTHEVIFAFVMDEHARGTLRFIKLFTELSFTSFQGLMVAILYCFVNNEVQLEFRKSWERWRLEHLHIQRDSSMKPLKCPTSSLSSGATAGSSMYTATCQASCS
Text: CHO and HEK-293 recombinant cell lines express a luciferase reporter gene under control of the CAMP responsive element (CRE). As a second recombinant protein the GLP-1 and NPY2 receptors were expressed in the reporter gene HEK cells, and the GIP receptor was expressed in the reporter gene CHO cells, respectively. Stimulation of these recombinant cells with an agonist leads to an increase of intracellular CAMP levels. In the presence of CAMP, the transcription factor CRE binding protein (CREB) binds to the CRE and to the CREB binding protein (CBP), which leads to transcription of the luciferase reporter gene. Peptides upon serial-dilution in 100% DMSO were transferred into 384-well assay plates with 5 μl pre-dispensed assay buffer (1×HBSS, 20 mM HEPES, pH7.4 supplemented with 0.5% human plasma) using acoustic dispensing on a Labcyte ECHO. Cryo-preserved transgenic reporter gene cells were thawed in assay buffer. 20 μl (10.000 cells/well) were added to the plate with the peptides and incubated for 4 hours at 37° C. in a humidified incubator. Following incubation, assay plates are equilibrated to room temperature, followed by addition of 25 μl of Bright-Glo™ Luciferase reagent, incubation at room temperature for 10 minutes and analysis of luminescence (Envision Reader). […] EC50 values were calculated by non-linear regression using sigmoid concentration-response with variable slope.
The same assays were run in the presence of 100% plasma with no additional buffer constituents.

[3] = 0.5% human plasma, read-out: hGIPR 0.5% hP

Compound	EC50 [1, 3] [nM]	EC50 ([1]; 100% human plasma, read-out: hGIPR 100% hP) [nM]	EC50 [2] [nM]
CC[C@H](C)[C@H](NC(=O)[C@H](CC(C)C)NC(=O)[C@H](Cc1c[nH]cn1)NC(=O)[C@H](CCCNC(=N)N)NC(=O)[C@@H](NC(=O)[C@H](Cc1ccccc1)NC(=O)[C@H](C)NC(=O)C(C)(C)NC(=O)[C@H](CCC(N)=O)NC(=O)[C@H](C)NC(=O)[C@H](CCC(N)=O)NC(=O)[C@H](CCCNC(=N)N)NC(=O)[C@H](CC(=O)O)NC(=O)[C@H](CC(C)C)NC(=O)C(C)(C)NC(=O)[C@@H](NC(=O)[C@H](CO)NC(=O)[C@H](Cc1ccc(O)cc1)NC(=O)[C@H](CC(=O)O)NC(=O)[C@H](CO)NC(=O)[C@@H](NC(=O)[C@H](Cc1ccccc1)NC(=O)[C@@H](NC(=O)CNC(=O)[C@H](CCC(=O)O)NC(=O)C(C)(C)NC(=O)[C@@H](N)Cc1ccc(O)cc1)[C@@H](C)O)[C@@H](C)O)[C@@H](C)CC)C(C)C)C(=O)N[C@@H](CC(N)=O)C(=O)N[C@@H](CCCCNC(=O)[C@@H](N)CCCCNC(=O)CC[C@H](NC(=O)CC[C@H](NC(=O)CC[C@H](NC(=O)CC[C@H](NC(=O)CC[C@H](NC(=O)CC[C@H](NC(=O)CCCCCCCCCCCCCCCCC(=O)O)C(=O)O)C(=O)O)C(=O)O)C(=O)O)C(=O)O)C(=O)O)C(=O)NC(C)(C)C(=O)N[C@H](C(=O)N[C@@H](CCCNC(=N)N)C(=O)N[C@@H](CCC(N)=O)C(=O)N[C@@H](CCCNC(=N)N)C(=O)N[C@@H](Cc1ccc(O)cc1)C(N)=O)[C@@H](C)O [Compound 147, Y-Aib-E-G-T-F-T-S-D-Y-S-I-Aib-L-D-R-Q-A-Q-Aib-A-F-V-R-H-L-I-N-K(1,3)-Aib-T-R-Q-R-Y-NH2.C18DA-gGlu-gGlu-gGlu-gGlu-gGlu-gGlu-eLys(1,2)] (H-Y[Aib]EGTFTSDYSI[Aib]LDRQAQ[Aib]AFVRHLINK([εLys-γGlu-γGlu-γGlu-γGlu-γGlu-γGlu-C18 diacid])[Aib]TRQRY-NH2)	0.2	5	0.3
CC[C@H](C)[C@H](NC(=O)[C@H](CC(C)C)NC(=O)[C@H](Cc1c[nH]cn1)NC(=O)[C@H](CCCNC(=N)N)NC(=O)[C@@H](NC(=O)[C@H](Cc1ccccc1)NC(=O)[C@H](C)NC(=O)C(C)(C)NC(=O)[C@H](CCC(N)=O)NC(=O)[C@H](C)NC(=O)[C@H](CCC(N)=O)NC(=O)[C@H](CCCCN)NC(=O)[C@H](CCC(=O)O)NC(=O)[C@H](CC(C)C)NC(=O)C(C)(C)NC(=O)[C@@H](NC(=O)[C@H](CO)NC(=O)[C@H](Cc1ccc(O)cc1)NC(=O)[C@H](CC(=O)O)NC(=O)[C@H](CO)NC(=O)[C@@H](NC(=O)[C@H](Cc1ccccc1)NC(=O)[C@@H](NC(=O)CNC(=O)[C@H](CCC(=O)O)NC(=O)C(C)(C)NC(=O)[C@@H](N)Cc1ccc(O)cc1)[C@@H](C)O)[C@@H](C)O)[C@@H](C)CC)C(C)C)C(=O)N[C@@H](CC(N)=O)C(=O)N[C@@H](CCCCNC(=O)CC[C@H](NC(=O)CC[C@H](NC(=O)CC[C@H](NC(=O)CC[C@H](NC(=O)CC[C@H](NC(=O)CC[C@H](NC(=O)CCCCCCCCCCCCCCCCCCC(=O)O)C(=O)O)C(=O)O)C(=O)O)C(=O)O)C(=O)O)C(=O)O)C(=O)NC(C)(C)C(=O)N[C@H](C(=O)N[C@@H](CCCNC(=N)N)C(=O)N(C)[C@@H](CCC(N)=O)C(=O)N[C@@H](CCCNC(=N)N)C(=O)N[C@@H](Cc1ccc(O)cc1)C(N)=O)[C@@H](C)O [Compound 114, Y-Aib-E-G-T-F-T-S-D-Y-S-I-Aib-L-E-K-Q-A-Q-Aib-A-F-V-R-H-L-I-N-K(1,3)-Aib-T-R-NMeQ-R-Y-NH2.C20DA-gGlu-gGlu-gGlu-gGlu-gGlu-gGlu(1,2)]	0.5		1.8
